Patent US20220143024A1, “METHODS OF USING IMIPRIDONES” (Board of Regents, The University of Texas System, priority 2019, published 2022)
Where two headings read alike, the source gives them in different places.

Assays:
[1] = system: ONC201-resistant (ONC-R) Z138 cells carrying D190A mutant ClpP; assay: Sensitivity of ONC201-resistant Z138 cells; conditions: Annexin V assay; 72 hours
Method: (§3) After a 72-h period of incubation at 37° C., 10 μL of Alamar Blue was added to the culture medium and the mixture was incubated for an additional 2 h at 37° C. Cytotoxicity was measured using spectrophotometry of fluorescence at excitation 560 nm & emission 590 nm (SpectraMax M3, Molecular Devices, San Jose, Calif.). […] Annexin V and PI were stained after 72 h incubation. Annexin V- and PI-negative cells were counted as live cells.

[2] = target: T1, human ClpP (recombinant WT ClpP) (Homo sapiens, UniProt Q16740); assay: ClpP enzymatic assays with fluorogenic substrates (cell-free); format: biochemical; conditions: for EC50: without ClpX
T1 construct: SUMO fusion (pETSUMO2); made in house; host or cells: E. coli SG1146
T1 sequence (Q16740 57-277): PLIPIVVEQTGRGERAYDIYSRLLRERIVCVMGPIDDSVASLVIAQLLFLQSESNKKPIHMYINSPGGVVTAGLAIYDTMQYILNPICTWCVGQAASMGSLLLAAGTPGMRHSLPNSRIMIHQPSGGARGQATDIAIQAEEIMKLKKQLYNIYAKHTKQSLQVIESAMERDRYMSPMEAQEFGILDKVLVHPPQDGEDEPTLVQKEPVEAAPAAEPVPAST
Method: (§1) Hill coefficient was determined using Origin7, Pharmacology—Dose-response curve with log (compound concentration) as the independent variable.

[3] = system: OCI-AML2 cells; assay: Alamar blue viability assay, OCI-AML2; format: cell-based; conditions: 72-hour exposure, read-out: IC50, growth and viability
Method: […]. After a 72-h period of incubation at 37° C., 10 μL of Alamar Blue was added to the culture medium and the mixture was incubated for an additional 2 h at 37° C. Cytotoxicity was measured using spectrophotometry of fluorescence at excitation 560 nm & emission 590 nm (SpectraMax M3, Molecular Devices, San Jose, Calif.). For apoptosis analysis, annexin V and PI binding assays were performed to assess apoptosis as described previously (Ishizawa et al., 2016). […]. Annexin V and PI were stained after 72 h incubation. Annexin V- and PI-negative cells were counted as live cells.

[4] = system: Z138 cells with tetracycline-inducible mutant ClpP (Y118A); assay: Z138 xenograft with tetracycline-inducible Y118A mutant ClpP; format: in vivo; conditions: tetracycline 2 mg/mL in drinking water induces Y118A ClpP; untreated 40 days; p<0.0001; NSG mice
Method: (§2) Mice. For all the animal studies in the present study, the study protocols were approved by the Institutional Animal Care and Use Committee (IACUC) at the Princess Margaret Cancer Centre and MD Anderson Cancer Center. Two million Z138 cells transfected with the wild-type or D190A mutant CLPP-over-expressing vector and labeled with luciferase were injected to individual NSG mice (n=7 per treatment group, all female). After confirming engraftment measured by in vivo bioluminescence imaging on d 9 post-transplantation, ONC212 (50 mg/kg/d) or vehicle (water) is administered by oral gavage every other d until the mice got moribund. Tumor burden measured by luminescence was followed weekly until day 31. Independently, two million Z138 cells transfected with tetracycline-inducible Y118A mutant ClpP were labeled with luciferase and injected to individual NSG mice (n=10 per treatment group, all male). After confirming engraftment measured by in vivo bioluminescence imaging on day 5 post-transplantation, the mice were treated with or without tetracycline (2 mg/mL) in drinking water until moribund. One million OCI-AML2 cells were injected to individual SCID mice (n=10 per treatment group, all male). […]. Engraftment experiments using patient-derived xenograft AML cells were performed as previously reported (Ishizawa et al., 2016). […] The mice in each group were monitored for survival.

[5] = target: T2, ClpP (Homo sapiens, UniProt Q16740); assay: Gel-based α-casein degradation by ClpP; format: biochemical; conditions: without ClpX; 3 h; SDS-PAGE
T2 construct: SUMO fusion (pETSUMO2); made in house; host or cells: E. coli SG1146
T2 sequence (Q16740 57-277): as above

[6] = target: T3, recombinant D190A ClpP (Homo sapiens, UniProt Q16740, D190A); assay: ClpP enzymatic assays, D190A ClpP; format: biochemical; conditions: peptide (AC-WLA-AMC) or protein (FITC-casein) substrates
T3 construct: SUMO fusion (pETSUMO2); made in house; host or cells: E. coli SG1146
T3 sequence (Q16740 57-277 D190A): as the sequence (Q16740 57-277) above, with D134A counted along it
Method: as §1

[7] = system: ClpP interactors (SDHA, SDHB, NDUFA12) in OCI-AML3 cells; assay: Immunoblot of respiratory chain complex subunits, OCI-AML3; format: cell-based; conditions: 24 hours, dose dependent
Method: Cells were lysed at a density of 1×10^6/50 μL (for AML cells) or 1×10^6/100 μL (for HCT116 cells) in protein lysis buffer (0.25 M Tris-HCl, 2% sodium dodecylsulfate, 4% β-mercaptoethanol, 10% glycerol, 0.02% bromophenol blue). Protein lysates for Oxphos cocktail antibodies were incubated for 30 min at room temperature, otherwise, at 95° C. for 5 min for denaturing (antibodies used are listed below). Immunoblot analysis was performed as reported previously (Ishizawa et al., 2016). Briefly, an equal amount of protein lysate was loaded onto a 10-12% SDS-PAGE gel (Bio-Rad), and quantitated using the Odyssey imaging system (LI-COR Biotechnology, Lincoln, Nebr.). Antibodies used: total OXPHOS rodent WB antibody cocktail, anti-SDHA, anti-SDHB, anti-NDUFA12, anti-ClpP, anti-ATF4, anti-eIF2α, anti-phospho-eIF2α (S51), anti-ClpP, anti-CQCRC2, anti-CS, anti-NDUFB8, anti-β-actin, and anti-GAPDH.

[8] = system: Z138 cells with WT ClpP overexpression; assay: Z138 xenograft, WT ClpP overexpression; format: in vivo, mice; conditions: WT ClpP group
Method: as §2

[9] = system: Z138 cells with D190A ClpP overexpression; assay: Z138 xenograft, D190A ClpP overexpression; format: in vivo, mice
Method: as §2

[10] = system: patient-derived xenograft AML cells (leukemia-initiating cells); assay: Engraftment of ex vivo treated patient-derived xenograft AML cells; format: in vivo; conditions: cells treated ex vivo with 250 nM for 36 hours, injected into NSG mice; untreated 36 days; p<0.0001
Method: as §2

[11] = target: endogenous ClpP in OCI-AML2 cells (Homo sapiens, UniProt Q16740); conditions: 30 min, at concentrations associated with activation in enzymatic assays
endogenous ClpP in OCI-AML2 cells, sequence (Q16740 57-277): as the sequence (Q16740 57-277) above

[12] = system: primary AML patient samples; assay: Annexin V assay in primary AML samples; conditions: 72 hours; incl. high-risk cytogenetics and molecular mutations
Method: Bulk AML cells from AML patients and peripheral blood stem cells from healthy G-CSF-treated stem cell donors were isolated by Ficoll density centrifugation and apheresis, respectively. Isolated cells were maintained in IMDM supplemented with 10% FBS, or Myelocult H5100 (Stemcell Technologies, Vancouver, BC), supplemented with 100 ng/mL SCF, 10 ng/mL FLT3-L, 20 ng/mL IL-7, 10 ng/mL IL-3, 20 ng/mL IL-6, 20 ng/mL G-CSF, 20 ng/mL GM-CSF. Cells were supplemented with 100 μg/ml penicillin, and 100 U/ml streptomycin, at 37° C. and 5% CO2 in humidified atmosphere.

[13] = system: CLPP+/+ T-REx HEK293 cells; assay: Alamar blue viability, CLPP+/+ T-REx HEK293; conditions: CLPP+/+ (wild type) T-REx HEK293, 72 h
Method: as §3

[14] = system: CLPP−/− T-REx HEK293 cells; assay: Alamar blue viability, CLPP−/− T-REx HEK293; conditions: 72 h
Method: as §3

[15] = system: OCI-AML2, OCI-AML3, TEX, Z138, HCT-116, HeLa, OC316 and SUM159 cells; assay: Growth and viability of leukemia, lymphoma and solid tumor cell lines; conditions: tested cell lines; 72-hour exposure
Method: as §3

[16] = substrate FITC-casein, read-out: EC50, ClpP cleavage of FITC-casein

For `COc1cccc2c1C(=O)c1c(O)c3c(c(O)c1C2=O)C[C@@](O)(C(=O)CO)C[C@@H]3O[C@H]1C[C@H](N)[C@H](O)[C@H](C)O1` [Adriamycin], the “sensitivity of ONC-R Z138 cells” value [1] was “retained similar sensitivity”.

In the case of `CC[C@]1(O)C[C@H]2CN(CCc3c([nH]c4ccccc34)[C@@](C(=O)OC)(c3cc4c(cc3OC)N(C=O)[C@H]3[C@@](O)(C(=O)OC)[C@H](OC(C)=O)[C@]5(CC)C=CCN6CC[C@]43[C@@H]65)C2)C1` [Vincristine], the “sensitivity of ONC-R Z138 cells” value [1] is reported as “retained similar sensitivity”.

For Acyldepsipeptide 1 [ADEP1], the “potency as ClpP activator (comparison)” value ([2]; ADEP1 versus ONC201 and ONC212) was “less potent”, the “cleavage of non-ClpP substrate MCA-Pro-Leu-Gly-Pro-D-Lys (DNP)-OH” value ([2]; after activating ClpP) was “not cleaved” and the EC50 [2, 16] was 21300 nM. The IC50 [3] was 50000 nM.

Work on `CN(C)[C@@H]1C(O)=C(C(N)=O)C(=O)[C@@]2(O)C(O)=C3C(=O)c4c(O)cccc4[C@@](C)(O)[C@H]3C[C@@H]12` [tetracycline] yielded a median survival [4] of 48 days.

With `O=C1C2=C(CCN(Cc3ccccc3)C2)N2CCN=C2N1Cc1ccc(C(F)(F)F)cc1` [ONC212] the Hill coefficient ([2]; FITC-casein data, positive cooperativity) was 4.98±0.47, the mode of activation ([2]; pre-incubation of ClpP with compound (0-60 min) did not increase activation) was “reversible (non-covalent)” and the EC50 ([2]; read-out: EC50, ClpP cleavage of FAPHMALVPC (Clptide), substrate FAPHMALVPC (Clptide), read-out: EC50, ClpP cleavage of […] (Clptide)) was 3370 nM. The EC50 ([2]; substrate AC-WLA-AMC, read-out: EC50, ClpP cleavage of AC-WLA-AMC) was 180 nM, the EC50 ([2]; substrate Ac-Phe-hArg-Leu-ACC, read-out: EC50, ClpP cleavage of Ac-Phe-hArg-Leu-ACC) was 370 nM and the EC50 [2, 16] was 460 nM. For the same compound, the “degradation of α-casein by ClpP” value [5] was “activated ClpP and induced cleavage of α-casein”, the “activation of proteolytic activity of D190A ClpP” value [6] was “could not activate” and the “level of identified ClpP interactors” value [7] was “reduced the level”. The “tumor burden (luciferase, IVIS imaging)” value ([8]; 50 mg/kg every other day, oral gavage, NSG mice) was “significantly reduced”, the median survival ([8]; vehicle 49 days, p=0.008) was 55 days and the “tumor burden (luciferase, IVIS imaging)” value ([9]; D190A ClpP group, 50 mg/kg every other day, oral gavage, NSG mice) was “no discernable anti-tumor activity”. The median survival ([9]; D190A mutant group, vehicle 53 days, p=0.40) was 54 days, the median survival [10] was 82 days and the “binding to endogenous ClpP in cells” value [11] was “bound endogenous ClpP”. For the same compound, the “apoptosis in primary AML patient samples” value [12] was “induced apoptosis”, the “sensitivity of ONC-R Z138 cells” value [1] was “cross-resistant” and the growth and viability [13] was “reduced the growth and viability”. The growth and viability [14] was “resistant” and the “IC50 values, growth and viability” value [15] was “nanomolar range”.
